Test results taken from patent US20080213213A1, “Method For the Treatment of Myelodysplastic Syndromes Using (+)-2-[1-(3-Ethoxy-4-Methoxyphenyl)-2-Methylsulfonylethyl]-4-Acetylaminoisoindoline-1,3-Dione” (priority 2004, published 2008).

Assays:
MDS patients = conditions: cited from earlier work
[1] = system: MDS bone marrow progenitor; assay: MDS vs normal bone marrow progenitor formation in pre-clinical models; type: cell-based
Excerpt: (§1) The pharmacological effects of 3-(3,4-dimethoxy-phenyl)-3-(1-oxo-1,3-dihydro-isoindol-2-yl)-propionamide derive from its action as an inhibitor of cellular response to receptor-initiated trophic signals (e.g., IGF-1, VEGF, cyclooxygenase-2), and other activities.

AML cells = assay: Mitogenic response to VEGF in AML cells; type: cell-based
Excerpt: as §1

angiogenic response = assay: In vitro pharmacology: angiogenic response; type: cell-based
Excerpt: as §1

[2] = system: production of various cytokines; assay: In vitro studies of pharmacological activity profile and cytokine production; type: cell-based, human
Procedure: The pharmacological properties of 3-(3,4-dimethoxy-phenyl)-3-(1-oxo-1,3-dihydro-isoindol-2-yl)-propionamide, including activity comparisons with thalidomide, are characterized in in vitro studies. Studies examine the effects of 3-(3,4-dimethoxy-phenyl)-3-(1-oxo-1,3-dihydro-isoindol-2-yl)-propionamide on the production of various cytokines. In addition, a safety pharmacology study of -(3,4-dimethoxy-phenyl)-3-(1-oxo-1,3-dihydro-isoindol-2-yl)-propionamide is conducted in dogs and the effects of the compound on ECG parameters are examined further as part of three repeat-dose toxicity studies in primates.
Inhibition of TNF-α production following LPS-stimulation of human PBMC and human whole blood by 3-(3,4-dimethoxy-phenyl)-3-(1-oxo-1,3-dihydro-isoindol-2-yl)-propionamide is investigated in vitro (Muller et al., Bioorg. Med. Chem. Lett. 9:1625-1630, 1999). The IC50's of 3-(3,4-dimethoxy-phenyl)-3-(1-oxo-1,3-dihydro-isoindol-2-yl)-propionamide for inhibiting production of TNF-α following LPS-stimulation of PBMC and human whole blood is measured.
as §1

[3] = system: death-receptor initiated programmed cell death; assay: In vitro pharmacology: death-receptor initiated programmed cell death; type: cell-based
Excerpt: as §1

[4] = system: adhesion molecules and apoptosis inhibitory proteins (e.g., cFLIP, cIAP); assay: In vitro pharmacology: adhesion molecules and apoptosis inhibitory proteins; type: cell-based
Excerpt: as §1

Q: With “recombinant human EPO: erythropoietin (EPO), hematopoietic growth factor” as the molecule, how does the “patients with sustained improvement in hemoglobin or decrease in transfusion requirement” value (MDS patients) read?
A: less than 25%

Q: Which results are given for `COc1ccc(C(CC(N)=O)N2Cc3ccccc3C2=O)cc1OC` (stereo not drawn) [3-(3,4-dimethoxy-phenyl)-3-(1-oxo-1,3-dihydro-isoindol-2-yl)-propionamide]?
A: MDS vs normal bone marrow progenitor formation [1]: selectively suppresses MDS vs normal bone marrow progenitor formation; mitogenic response to VEGF (AML cells): abrogates mitogenic response to VEGF; ligand-induced Akt-phosphorylation (AML cells; VEGF): extinguishing ligant-induced Akt-phosphorylation; angiogenic response (angiogenic response): suppresses angiogenic response; generation of inflammatory cytokines [2]: suppresses the generation of inflammatory cytokines; sensitivity to death-receptor initiated programmed cell death [3]: promotes sensitivity to death-receptor initiated programmed cell death; adhesion molecules and apoptosis inhibitory proteins (e.g., cFLIP, cIAP) [4]: down-regulates adhesion molecules and apoptosis inhibitory proteins

Q: For “recombinant human GM-CSF: granulocyte macrophage colony stimulating factor (GM-CSF)”, which “granulocytopoiesis in treated patients” value (MDS patients) is on record?
A: can restore granulocytopoiesis

Q: What about the “improvement in hemoglobin or platelet counts” value (MDS patients) of the same molecule?
A: little or no improvement

B1: G-CSF: granulocyte colony stimulating factor (G-CSF) (protein, UniProt P09919 31-207, looked up)
Granulocyte …: TPLGPASSLPQSFLLKCLEQVRKIQGDGAALQEKLVSECATYKLCHPEELVLLGHSLGIPWAPLSSCPSQALQLAGCLSQLHSGLFLYQGLLQALEGISPELGPTLDTLQLDVADFATTIWQQMEELGMAPALQPTQGAMPAFASAFQRRAGGVLVASHLQSFLEVSYRVLRHLAQP
Q: What does the source list for B1?
A: granulocytopoiesis in treated patients (MDS patients): can restore granulocytopoiesis; improvement in hemoglobin or platelet counts (MDS patients): little or no improvement
